Counter-ions that a name gives are not always drawn.
target: T1, recombinant human MCHR1-receptors (Homo sapiens, UniProt Q99705); assay: MCHR filter binding assay (competition binding); details: membranes from CHO-K1 cells expressing human MCHR1; 0.2 nM [Phe13,[125I]Tyr19]-MCH; read-out: IC50 (nM), in vitro activity (binding assay)
T1 construct: expressed in transfected cells
Protocol: MCHR Filter Binding Assay
Competition binding assays were performed using membranes from CHO-K1 cells stably expressing the recombinant human MCHR1-receptors. Binding reactions (90 μl, final volume) were carried out at rt by incubating 2.8 μg membranes with 0.2 nM [Phe^13,[^125I]Tyr^19]-MCH (PerkinElmer) in the absence or presence of various concentrations of competing ligands in binding buffer (50 mM HEPES, 2.5 mM CaCl2, 0.05 mM BSA, 1 mM phenanthroline, 0.03 mM Triton X-100). [Phe^13,[^125I]Tyr^19]-MCH was added 15 min following the addition of unlabeled competing ligands, and the reactions incubated for a 1 h period. The reactions were terminated by rapid filtration over pretreated 96-well filter plates (Millipore; MultiScreen 0.65 μm GFB filter plates). Filter Plates were treated for 12 h at 4° C. with a 0.5% polyvinylpyrrolidone solution containing 1% BSA and 0.1% Tween 20, and then washed with an ice-cold solution of 10 mM Tris, pH 7.5 (5×200 μl). The plates were drained following a 5 min incubation with binding buffer (200 μl) at rt. Following termination of the binding reactions, the filters were washed with ice-cold binding buffer (4×200 μl). The filter plates were air dried for 30 min, scintillation cocktail (60 μl) added to each well and radioactivity bound to the plates was determined using a Micro-beta plate reader (Wallace/PerkinElmer).

T1 sequence (Q99705 whole entry): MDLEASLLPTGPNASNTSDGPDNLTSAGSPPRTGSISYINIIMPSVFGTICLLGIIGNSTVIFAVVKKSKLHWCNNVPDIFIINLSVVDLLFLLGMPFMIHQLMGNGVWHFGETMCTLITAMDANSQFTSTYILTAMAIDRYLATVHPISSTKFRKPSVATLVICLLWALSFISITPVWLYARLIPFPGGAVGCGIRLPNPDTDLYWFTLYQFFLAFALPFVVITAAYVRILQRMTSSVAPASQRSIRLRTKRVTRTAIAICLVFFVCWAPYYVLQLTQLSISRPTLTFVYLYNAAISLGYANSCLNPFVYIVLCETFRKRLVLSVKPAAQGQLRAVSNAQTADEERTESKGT

| Molecule | IC50 |
| --- | --- |
| 1-((3R,4R)-1-Indan-2-ylmethyl-3-methoxy-piperidin-4-yl)-2,5-dimethyl-1H-benzoimidazole; dihydrochloride [Example 55] | 200 to 5000 nM |
| Cc1ccc2c(c1)nc(C)n2[C@@H]1CCN(C[C@@H]2Cc3ccc(NC(=O)C(C)C)cc3C2)C[C@H]1CO (racemic) [Example 3, N-{(R)-2-[4-(2,5-Dimethyl-benzoimidazol-1-yl)-3-hydroxymethyl-piperidin-1-ylmethyl]-indan-5-yl}-isobutyramide] | < 20 nM |
| Cc1ccc2c(c1)nc(C(C)C)n2[C@@H]1CCN(CC2Cc3ccc(NC(=O)C4CC4)cc3C2)C[C@H]1O (stereo in doubt) [Example 2, Cyclopropanecarboxylic acid {(R)-2-[(3R,4R)-3-hydroxy-4-(2-isopropyl-5-methyl-benzoimidazol-1-yl)-piperidin-1-ylmethyl]-indan-5-yl}-amide] | 20 to 200 nM |
| CCOc1nc2cc(C)ccc2n1C1CCN(CC2Cc3ccc(NC(=O)C(C)C)cc3C2)CC1 (stereo in doubt) [Example 4, N-{(S)-2-[4-(2-Ethoxy-5-methyl-benzoimidazol-1-yl)-piperidin-1-ylmethyl]-indan-5-yl}-isobutyramide] | 20 to 200 nM |
| CCC(=O)Nc1ccc2c(c1)CC(CN1CC[C@@H](n3c(C)nc4cc(C)ccc43)[C@H](O)C1)C2 (stereo in doubt) [Example 5, N-{(S)-2-[(3R,4R)-4-(2,5-Dimethyl-benzoimidazol-1-yl)-3-hydroxy-piperidin-1-ylmethyl]-indan-5-yl}-propionamide] | 20 to 200 nM |
| CO[C@@H]1CN(CC2Cc3ccc(Br)cc3C2)CC[C@H]1n1c(C(C)(C)O)nc2cc(C)ccc21 (stereo in doubt) [Example 11, 2-{1-[(3R,4R)-1-((S)-5-Bromo-indan-2-ylmethyl)-3-methoxy-piperidin-4-yl]-5-methyl-1H-benzoimidazol-2-yl}-propan-2-ol] | < 20 nM |
| CCC(=O)Nc1ccc2c(c1)C[C@H](CN1CCC(n3c(C(C)C)nc4cc(C)ccc43)[C@@H](OC)C1)C2 (stereo in doubt) [Example 32, N-{(R)-2-[(3S,4S)-4-(2-Isopropyl-5-methyl-benzoimidazol-1-yl)-3-methoxy-piperidin-1-ylmethyl]-indan-5-yl}-propionamide] | < 20 nM |
| CO[C@H]1CN(C[C@@H]2Cc3ccc(NC(=O)C4CC4)cc3C2)CCC1n1c(C2CC2)nc2cc(C)ccc21 (stereo in doubt) [Example 66, Cyclopropanecarboxylic acid {(R)-2-[(3S,4S)-4-(2-cyclopropyl-5-methyl-benzoimidazol-1-yl)-3-methoxy-piperidin-1-ylmethyl]-indan-5-yl}-amide] | < 20 nM |
| COC1CN(C[C@H]2Cc3ccc(C#N)cc3C2)CC[C@H]1n1c(C(C)(C)O)nc2cc(C)ccc21 (stereo in doubt) [Example 120, (S)-2-{(3R,4R)-4-[2-(1-Hydroxy-1-methyl-ethyl)-5-methyl-benzoimidazol-1-yl]-3-methoxy-piperidin-1-ylmethyl}-indan-5-carbonitrile] | < 20 nM |
| Cc1ccc2c(c1)nc(C(C)(C)O)n2[C@@H]1CCN(C[C@H]2Cc3ccc(Br)cc3C2)CC1O (stereo in doubt) [Example 122, (3R,4R)-1-((S)-5-Bromo-indan-2-ylmethyl)-4-[2-(1-hydroxy-1-methyl-ethyl)-5-methyl-benzoimidazol-1-yl]-piperidin-3-ol] | < 20 nM |
| CO[C@@H]1CN(C[C@H]2Cc3ccc(Br)cc3C2)CC[C@H]1n1c(C)nc2cc(C)ccc21 [Example 1, 1-[(3R,4R)-1-((S)-5-Bromo-indan-2-ylmethyl)-3-methoxy-piperidin-4-yl]-2,5-dimethyl-1H-benzoimidazole] | < 20 nM |
| COC(=O)Nc1ccc2c(c1)C[C@H](CN1CCC(n3c(C(C)(C)O)nc4cc(C)ccc43)CC1)C2 [Example 6, ((R)-2-{4-[2-(1-Hydroxy-1-methyl-ethyl)-5-methyl-benzoimidazol-1-yl]-piperidin-1-ylmethyl}-indan-5-yl)-carbamic acid methyl ester] | 20 to 200 nM |
| Cc1ccc2c(c1)nc(C)n2[C@@H]1CCN(C[C@@H]2Cc3ccc(NC(=O)C(C)C)cc3C2)C[C@H]1OS(C)(=O)=O [Example 7, Methanesulfonic acid 4-(2,5-dimethyl-benzoimidazol-1-yl)-1-((R)-5-isobutyrylamino-indan-2-ylmethyl)-piperidin-3-yl ester] | 20 to 200 nM |
| CCC(=O)Nc1ccc2c(c1)C[C@H](CN1CCC(n3c(C(C)(C)O)nc4cc(C)ccc43)CC1)C2 [Example 8, N-((R)-2-{4-[2-(1-Hydroxy-1-methyl-ethyl)-5-methyl-benzoimidazol-1-yl]-piperidin-1-ylmethyl}-indan-5-yl)-propionamide] | 20 to 200 nM |
| Cc1ccc2c(c1)nc(C)n2[C@@H]1CCN(C[C@H]2Cc3ccc(NC(=O)C(C)C)cc3C2)C[C@H]1O [Example 9, N-{(S)-2-[(3R,4R)-4-(2,5-Dimethyl-benzoimidazol-1-yl)-3-hydroxy-piperidin-1-ylmethyl]-indan-5-yl}-isobutyramide; trifluoroacetic acid salt] | 20 to 200 nM |
| Cc1cc2nc(C)n(C3CCN(C[C@@H]4Cc5ccc(NC(=O)C(C)C)cc5C4)CC3)c2cn1 [Example 10, N-{(R)-2-[4-(2,6-Dimethyl-imidazo[4,5-c]pyridin-3-yl)-piperidin-1-ylmethyl]-indan-5-yl}-isobutyramide; compound with trifluoro-acetic acid] | 200 to 5000 nM |
| Cc1ccc2c(c1)nc(C(C)(C)O)n2C1CCN(CC2Cc3ccncc3C2)CC1 (stereo not drawn) [Example 12, 2-{1-[1-(6,7-Dihydro-5H-[2]pyrindin-6-ylmethyl)-piperidin-4-yl]-5-methyl-1H-benzoimidazol-2-yl}-propan-2-ol] | 20 to 200 nM |
| Cc1cc2nc(C(C)(C)O)n(C3CCN(CC4Cc5ccc(F)cc5C4)CC3)c2cc1F (stereo not drawn) [Example 13, 2-{6-Fluoro-1-[1-(5-fluoro-indan-2-ylmethyl)-piperidin-4-yl]-5-methyl-1H-benzoimidazol-2-yl}-propan-2-ol] | < 20 nM |
| Cc1ccc2c(c1)nc(C(C)(C)O)n2C1CCN(CC2Cc3ccc(Cl)cc3C2)CC1 (stereo not drawn) [Example 14, 2-{1-[1-(5-Chloro-indan-2-ylmethyl)-piperidin-4-yl]-5-methyl-1H-benzoimidazol-2-yl}-propan-2-ol] | < 20 nM |
| Cc1ccc2c(c1)nc(C)n2[C@H]1CCN(C[C@@H]2Cc3ccc(NC(=O)C(C)C)cc3C2)C[C@@H]1OCC(C)(C)O [Example 15, N-{(R)-2-[(3S,4S)-4-(2,5-Dimethyl-benzoimidazol-1-yl)-3-(2-hydroxy-2-methyl-propoxy)-piperidin-1-ylmethyl]-indan-5-yl}-isobutyramide; dihydrochloride] | < 20 nM |
| CO[C@@H]1CN(C[C@@H]2Cc3ccc(NC(=O)C(C)C)cc3C2)CC[C@H]1n1c(C)nc2cc(C)ccc21 [Example 16, N-{(R)-2-[(3R,4R)-4-(2,5-Dimethyl-benzoimidazol-1-yl)-3-methoxy-piperidin-1-ylmethyl]-indan-5-yl}-isobutyramide; dihydrochloride] | 20 to 200 nM |

same assay, conditions: membranes from CHO-K1 cells expressing human MCHR1; 0.2 nM [Phe13,[125I]Tyr19]-MCH; read-out: IC50 (nM), selected in vitro MCH-R binding data

| Molecule | IC50 |
| --- | --- |
| CO[C@H]1CN(C[C@@H]2Cc3ccc(NC(=O)C4CC4)cc3C2)CCC1n1c(C2CC2)nc2cc(C)ccc21 (stereo in doubt) [Example 66, Cyclopropanecarboxylic acid {(R)-2-[(3S,4S)-4-(2-cyclopropyl-5-methyl-benzoimidazol-1-yl)-3-methoxy-piperidin-1-ylmethyl]-indan-5-yl}-amide] | 12 nM |
| Cc1ccc2c(c1)nc(C(C)(C)O)n2[C@@H]1CCN(C[C@H]2Cc3ccc(Br)cc3C2)CC1O (stereo in doubt) [Example 126, (3R,4R)-1-((S)-5-Bromo-indan-2-ylmethyl)-4-[2-(1-hydroxy-1-methyl-ethyl)-5-methyl-benzoimidazol-1-yl]-piperidin-3-ol] | 2 nM |
| CO[C@@H]1CN(C[C@H]2Cc3ccc(Br)cc3C2)CC[C@H]1n1c(C)nc2cc(C)ccc21 [Example 1, 1-[(3R,4R)-1-((S)-5-Bromo-indan-2-ylmethyl)-3-methoxy-piperidin-4-yl]-2,5-dimethyl-1H-benzoimidazole] | 20 nM |
